Experimental data reported in PubChem BioAssay (NCI).
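All cell lines were grown in 96-well plates and treated with compound for 48 hours. GI50 is the concentration that inhibits growth by half. TGI denotes the concentration required for complete inhibition of growth.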

Experiments:
Assay in all cases: NCI-60 cell line screen, 48 h
M14 melanoma = test system: M14 melanoma
DU-145 prostate = test system: DU-145 prostate
HCT-15 colon = test system: HCT-15 colon
HCC-2998 colon = test system: HCC-2998 colon
U251 CNS = test system: U251 CNS
ACHN renal = test system: ACHN renal
A498 renal = test system: A498 renal
MOLT-4 leukemia = test system: MOLT-4 leukemia
LOX IMVI melanoma = test system: LOX IMVI melanoma
SK-MEL-5 melanoma = test system: SK-MEL-5 melanoma
MCF7 breast = test system: MCF7 breast
MDA-MB-435 = test system: MDA-MB-435
A549 NSCLC = test system: A549 NSCLC
NCI-H522 lung = test system: NCI-H522 lung
HCT-116 colon = test system: HCT-116 colon
SF-268 CNS = test system: SF-268 CNS
NCI-H226 lung = test system: NCI-H226 lung
UO-31 renal = test system: UO-31 renal
SK-MEL-2 melanoma = test system: SK-MEL-2 melanoma
IGROV1 ovarian = test system: IGROV1 ovarian
OVCAR-5 ovarian = test system: OVCAR-5 ovarian
RXF 393 renal = test system: RXF 393 renal
UACC-257 melanoma = test system: UACC-257 melanoma
NCI/ADR-RES ovarian = test system: NCI/ADR-RES ovarian
NCI-H23 lung = test system: NCI-H23 lung
MDA-MB-231 breast = test system: MDA-MB-231 breast
HOP-92 NSCLC = test system: HOP-92 NSCLC
CAKI-1 renal = test system: CAKI-1 renal
OVCAR-8 ovarian = test system: OVCAR-8 ovarian
CCRF-CEM leukemia = test system: CCRF-CEM leukemia
786-0 renal = test system: 786-0 renal
TK-10 renal = test system: TK-10 renal
SNB-75 CNS = test system: SNB-75 CNS
SK-OV-3 ovarian = test system: SK-OV-3 ovarian
SF-539 CNS = test system: SF-539 CNS
SN12C renal = test system: SN12C renal
SF-295 CNS = test system: SF-295 CNS
K-562 leukemia = test system: K-562 leukemia
COLO 205 colon = test system: COLO 205 colon
HOP-62 NSCLC = test system: HOP-62 NSCLC
NCI-H460 lung = test system: NCI-H460 lung
HT29 colon = test system: HT29 colon
SK-MEL-28 melanoma = test system: SK-MEL-28 melanoma
HL-60(TB) leukemia = test system: HL-60(TB) leukemia
SR leukemia = test system: SR leukemia
HS 578T breast = test system: HS 578T breast
RPMI-8226 leukemia = test system: RPMI-8226 leukemia
OVCAR-3 ovarian = test system: OVCAR-3 ovarian
SNB-19 CNS = test system: SNB-19 CNS
KM12 colon = test system: KM12 colon
UACC-62 melanoma = test system: UACC-62 melanoma
PC-3 prostate = test system: PC-3 prostate
OVCAR-4 ovarian = test system: OVCAR-4 ovarian
T-47D breast = test system: T-47D breast
MALME-3M melanoma = test system: MALME-3M melanoma
BT-549 breast = test system: BT-549 breast
SW-620 colon = test system: SW-620 colon

Compound: Cc1ccc2c(NCCCN(C)C)c3c(C)nn(C)c3nc2c1
- GI50 (M14 melanoma): 4.34 µM
- TGI (M14 melanoma): 17.6 µM
- GI50 (DU-145 prostate): 3.88 µM
- TGI (DU-145 prostate): 37.7 µM
- GI50 (HCT-15 colon): 2590 nM
- TGI (HCT-15 colon): 18.3 µM
- GI50 (HCC-2998 colon): 5.83 µM
- TGI (HCC-2998 colon): 22.4 µM
- GI50 (U251 CNS): 4.77 µM
- TGI (U251 CNS): 29.4 µM
- GI50 (ACHN renal): 2250 nM
- TGI (ACHN renal): 16.9 µM
- GI50 (A498 renal): 1800 nM
- TGI (A498 renal): 7.86 µM
- GI50 (MOLT-4 leukemia): 5.11 µM
- TGI (MOLT-4 leukemia): 33.1 µM
- GI50 (LOX IMVI melanoma): 2220 nM
- TGI (LOX IMVI melanoma): 5.64 µM
- GI50 (SK-MEL-5 melanoma): 3.66 µM
- TGI (SK-MEL-5 melanoma): 14.3 µM
- GI50 (MCF7 breast): 2530 nM
- TGI (MCF7 breast): 7.04 µM
- GI50 (MDA-MB-435): 3.28 µM
- TGI (MDA-MB-435): 14 µM
- GI50 (A549 NSCLC): 3.45 µM
- TGI (A549 NSCLC): 25.1 µM
- GI50 (NCI-H522 lung): 2760 nM
- TGI (NCI-H522 lung): 12.7 µM
- GI50 (HCT-116 colon): 3.04 µM
- TGI (HCT-116 colon): 25.1 µM
- GI50 (SF-268 CNS): 4.18 µM
- TGI (SF-268 CNS): 23.9 µM
- GI50 (NCI-H226 lung): 3.34 µM
- TGI (NCI-H226 lung): 27 µM
- GI50 (UO-31 renal): 2680 nM
- TGI (UO-31 renal): 14 µM
- GI50 (SK-MEL-2 melanoma): 3.64 µM
- TGI (SK-MEL-2 melanoma): 11.1 µM
- GI50 (IGROV1 ovarian): 4.17 µM
- TGI (IGROV1 ovarian): 29.6 µM
- GI50 (OVCAR-5 ovarian): 3.69 µM
- TGI (OVCAR-5 ovarian): 22.4 µM
- GI50 (RXF 393 renal): 2710 nM
- TGI (RXF 393 renal): 12.1 µM
- GI50 (UACC-257 melanoma): 3.9 µM
- TGI (UACC-257 melanoma): 14.4 µM
- GI50 (NCI/ADR-RES ovarian): 3.34 µM
- TGI (NCI/ADR-RES ovarian): 66.4 µM
- GI50 (NCI-H23 lung): 5.29 µM
- TGI (NCI-H23 lung): 25.3 µM
- GI50 (MDA-MB-231 breast): 3.86 µM
- TGI (MDA-MB-231 breast): 19.4 µM
- GI50 (HOP-92 NSCLC): 1600 nM
- TGI (HOP-92 NSCLC): 5.99 µM
- GI50 (CAKI-1 renal): 3.04 µM
- TGI (CAKI-1 renal): 38.1 µM
- GI50 (OVCAR-8 ovarian): 3.73 µM
- TGI (OVCAR-8 ovarian): 21.7 µM
- GI50 (CCRF-CEM leukemia): 5.09 µM
- TGI (CCRF-CEM leukemia): 88.8 µM
- GI50 (786-0 renal): 4.99 µM
- TGI (786-0 renal): 26.5 µM
- GI50 (TK-10 renal): 2890 nM
- TGI (TK-10 renal): 14 µM
- GI50 (SNB-75 CNS): 1890 nM
- TGI (SNB-75 CNS): 10.9 µM
- GI50 (SK-OV-3 ovarian): 7.26 µM
- TGI (SK-OV-3 ovarian): 68.7 µM
- GI50 (SF-539 CNS): 4.7 µM
- TGI (SF-539 CNS): 19.6 µM
- GI50 (SN12C renal): 3.52 µM
- TGI (SN12C renal): 29.9 µM
- GI50 (SF-295 CNS): 3.83 µM
- TGI (SF-295 CNS): 28.4 µM
- GI50 (K-562 leukemia): 3.14 µM
- TGI (K-562 leukemia): > 100 µM
- GI50 (COLO 205 colon): 3.03 µM
- TGI (COLO 205 colon): 11.4 µM
- GI50 (HOP-62 NSCLC): 6.46 µM
- TGI (HOP-62 NSCLC): 60.2 µM
- GI50 (NCI-H460 lung): 2960 nM
- TGI (NCI-H460 lung): 10.2 µM
- GI50 (HT29 colon): 2620 nM
- TGI (HT29 colon): 8.88 µM
- GI50 (SK-MEL-28 melanoma): 4.44 µM
- TGI (SK-MEL-28 melanoma): 17.3 µM
- GI50 (HL-60(TB) leukemia): 5.08 µM
- TGI (HL-60(TB) leukemia): 22.9 µM
- GI50 (SR leukemia): 3.36 µM
- TGI (SR leukemia): > 100 µM
- GI50 (HS 578T breast): 4.24 µM
- TGI (HS 578T breast): 33.5 µM
- GI50 (RPMI-8226 leukemia): 3.3 µM
- TGI (RPMI-8226 leukemia): 14.4 µM
- GI50 (OVCAR-3 ovarian): 4.13 µM
- TGI (OVCAR-3 ovarian): 24.8 µM
- GI50 (SNB-19 CNS): 3.96 µM
- TGI (SNB-19 CNS): 39.1 µM
- GI50 (KM12 colon): 4.55 µM
- TGI (KM12 colon): 31.8 µM
- GI50 (UACC-62 melanoma): 3.9 µM
- TGI (UACC-62 melanoma): 16.4 µM
- GI50 (PC-3 prostate): 3.59 µM
- TGI (PC-3 prostate): 16.3 µM
- GI50 (OVCAR-4 ovarian): 3.06 µM
- TGI (OVCAR-4 ovarian): 16.1 µM
- GI50 (T-47D breast): 9.5 µM
- TGI (T-47D breast): 98.8 µM
- GI50 (MALME-3M melanoma): 4.97 µM
- TGI (MALME-3M melanoma): 22 µM
- GI50 (BT-549 breast): 13.7 µM
- TGI (BT-549 breast): 31 µM
- GI50 (SW-620 colon): 2960 nM
- TGI (SW-620 colon): 35.5 µM
